Here are results for 26 molecules from ChEMBL document CHEMBL1131907, “Novel synthetic oleanane triterpenoids: a series of highly active inhibitors of nitric oxide production in mouse macrophages” (Bioorg Med Chem Lett, 1999).

What all share (format): functional, organism-based
Experiment [1] is filed under the species Mus musculus. Put plainly: Inhibitory activity against production of nitric oxide induced by interferon-gamma in mouse macrophages.
The species named for experiment [2] is Mus musculus. Put plainly: Inhibitory activity against production of nitric oxide (NO) induced by interferon-gamma (IFN-gamma) in mouse macrophages below 1 uM concentration; Inactive.
Experiment [3] is filed under the species Mus musculus. Put plainly: Inhibitory activity against production of nitric oxide (NO) induced by interferon-gamma (IFN-gamma) in mouse macrophages above 1 uM concentration; Toxic.

For the molecule `CC1(C)CC[C@]2(C(=O)O)CC[C@]3(C)[C@H](C(=O)C=C4[C@@]5(C)C=CC(=O)C(C)(C)[C@@H]5CC[C@]43C)[C@@H]2C1`, the IC50 (commonly the concentration needed to halve the response being measured) in the experiment filed under Mus musculus [1] is 200 nM.

Regarding `COC(=O)[C@]12CCC(C)(C)CC1C1C(=O)C=C3[C@@]4(C)C=C(C(=O)O)C(=O)C(C)(C)[C@@H]4CC[C@@]3(C)[C@]1(C)CC2` (some centres undefined), it took 0.8 nM to reach half-maximal inhibition in the experiment filed under Mus musculus [1] (IC50).

`C[C@]12CCC(=O)C=C1CCC1[C@@H]2[C@@H](O)C[C@@]2(C)[C@H]1CC[C@]2(O)C(=O)CO` (single isomer, unassigned) [HYDROCORTISONE] gave an IC50 in the experiment listed under Mus musculus [1] of 10 nM.

For `COC(=O)C1=C[C@]2(C)C3=CC(=O)C4C5CC(C)(C)CC[C@]5(C(=O)OC)CC[C@@]4(C)[C@]3(C)CC[C@H]2C(C)(C)C1=O` (some centres undefined), the values for the 50% inhibitory concentration (IC50) entry in the experiment filed under Mus musculus [2] and in the experiment filed under Mus musculus [3] were “Not Active” and “Toxic”, respectively.

Take `COC(=O)[C@]12CCC(C)(C)CC1C1=CC[C@@H]3[C@@]4(C)C=C(C(N)=O)C(=O)C(C)(C)[C@@H]4CC[C@@]3(C)[C@]1(C)CC2` (some centres undefined): the half-maximal inhibitory concentration (IC50) in the experiment filed under Mus musculus [1] was 14000 nM.

The molecule `COC(=O)C1=C[C@]2(C)C3=CC(=O)C4C5CC(C)(C)CC[C@]5(C(=O)O)CC[C@@]4(C)[C@]3(C)CC[C@H]2C(C)(C)C1=O` (some centres undefined) registered an IC50 in the experiment filed under Mus musculus [1] of 100 nM.

`COC(=O)[C@]12CCC(C)(C)CC1C1=CC[C@@H]3[C@@]4(C)C=C(C(=O)O)C(=O)C(C)(C)[C@@H]4CC[C@@]3(C)[C@]1(C)CC2` (some centres undefined): in the experiment filed under Mus musculus [1], half-maximal inhibition (IC50) required 800 nM.

For `CC1(C)CC[C@]2(C(=O)O)CC[C@]3(C)C(=CC[C@@H]4[C@@]5(C)C=C(C=O)C(=O)C(C)(C)[C@@H]5CC[C@]43C)C2C1` (some centres undefined), the IC50 entry in the experiment filed under Mus musculus [2] is reported as “Not Active”; in the experiment filed under Mus musculus [3], “Toxic”.

In the case of `CC1(C)CC[C@]2(C(=O)O)CC[C@]3(C)C(=CC[C@@H]4[C@@]5(C)CC[C@H](O)C(C)(C)[C@@H]5CC[C@]43C)[C@@H]2C1` [OLEANOLIC_ACID], in the experiment listed under Mus musculus [1], the IC50 is > 40000 nM.

In the experiment listed under Mus musculus [1], `CC1(C)CC[C@]2(C(=O)O)CC[C@]3(C)C(=CC[C@@H]4[C@@]5(C)C=C(Br)C(=O)C(C)(C)[C@@H]5CC[C@]43C)C2C1` (some centres undefined) came in with an IC50 of 7300 nM.

`CC1(C)CC[C@]2(C(=O)O)CC[C@]3(C)C(C(=O)C=C4[C@@]5(C)C=C(C(=O)O)C(=O)C(C)(C)[C@@H]5CC[C@]43C)C2C1` (some centres undefined) came in with a half-inhibitory concentration (IC50) in the experiment filed under Mus musculus [1] of 200 nM.

Turning to `CC1(C)CC[C@]2(C(=O)O)CC[C@]3(C)C(=CC[C@@H]4[C@@]5(C)C=C(Cl)C(=O)C(C)(C)[C@@H]5CC[C@]43C)C2C1` (some centres undefined), the IC50 in the experiment listed under Mus musculus [1] is > 40000 nM.

As for `COC(=O)[C@]12CCC(C)(C)CC1C1=CC[C@@H]3[C@@]4(C)C=C(Cl)C(=O)C(C)(C)[C@@H]4CC[C@@]3(C)[C@]1(C)CC2` (some centres undefined), the IC50 in the experiment filed under Mus musculus [1] is > 40000 nM.

Consider `COC(=O)[C@]12CCC(C)(C)C[C@H]1[C@H]1C(=O)C=C3[C@@]4(C)C=C(C#N)C(=O)C(C)(C)[C@@H]4CC[C@@]3(C)[C@]1(C)CC2` [BARDOXOLONE METHYL], for which half-maximal inhibition in the experiment listed under Mus musculus [1] (IC50) was put at 0.1 nM.

Regarding `COC(=O)[C@]12CCC(C)(C)CC1C1=CC[C@@H]3[C@@]4(C)C=C(C#N)C(=O)C(C)(C)[C@@H]4CC[C@@]3(C)[C@]1(C)CC2` (some centres undefined), the IC50 in the experiment listed under Mus musculus [1] came out at 700 nM. Compared with the last molecule, the IC50 is about 7000-fold higher.

For the molecule `COC(=O)[C@]12CCC(C)(C)CC1C1=CC(=O)[C@@H]3[C@@]4(C)C=C(C#N)C(=O)C(C)(C)[C@@H]4CC[C@@]3(C)[C@]1(C)CC2` (some centres undefined), the IC50 in the experiment filed under Mus musculus [1] was 20 nM.

In turn, `CC1(C)CC[C@]2(C(=O)O)CC[C@]3(C)C(=CC[C@@H]4[C@@]5(C)C=C(C(=O)O)C(=O)C(C)(C)[C@@H]5CC[C@]43C)C2C1` (some centres undefined) came in with a 50% inhibitory concentration (IC50) in the experiment filed under Mus musculus [1] of 70 nM.

Turning to `CC1(C)CC[C@]2(C(=O)O)CC[C@]3(C)[C@H](C(=O)C=C4[C@@]5(C)C=C(C#N)C(=O)C(C)(C)[C@@H]5CC[C@]43C)[C@@H]2C1` [BARDOXOLONE], the IC50 in the experiment listed under Mus musculus [1] worked out at 0.2 nM.

For `C[C@@H]1C[C@H]2[C@@H]3CCC4=CC(=O)C=C[C@]4(C)[C@@]3(F)[C@@H](O)C[C@]2(C)[C@@]1(O)C(=O)CO` [DEXAMETHASONE], the half-maximal inhibitory concentration (IC50) in the experiment listed under Mus musculus [1] came out at 0.1 nM.

Take `COC(=O)[C@]12CCC(C)(C)CC1C1=CC[C@@H]3[C@@]4(C)C=C(Br)C(=O)C(C)(C)[C@@H]4CC[C@@]3(C)[C@]1(C)CC2` (some centres undefined): in the experiment listed under Mus musculus [1], the IC50 is > 40000 nM.

For the molecule `COC(=O)C1=C[C@]2(C)[C@H]3CC=C4C5CC(C)(C)CC[C@]5(C(=O)O)CC[C@@]4(C)[C@]3(C)CC[C@H]2C(C)(C)C1=O` (some centres undefined), the IC50 in the experiment filed under Mus musculus [1] was determined as 2200 nM.

On to `COC(=O)[C@]12CCC(C)(C)CC1C1=CC[C@@H]3[C@@]4(C)C=C(C=O)C(=O)C(C)(C)[C@@H]4CC[C@@]3(C)[C@]1(C)CC2` (some centres undefined), for which the values for the half-inhibitory concentration (IC50) entry in the experiment listed under Mus musculus [2] and in the experiment listed under Mus musculus [3] were “Not Active” and “Toxic”, respectively.

Consider `CC1(C)CC[C@]2(C(=O)O)CC[C@]3(C)C(=CC[C@@H]4[C@@]5(C)C=CC(=O)C(C)(C)[C@@H]5CC[C@]43C)C2C1` (some centres undefined), for which 5600 nM corresponded to half-maximal inhibition in the experiment listed under Mus musculus [1] (IC50).

The molecule `COC(=O)C1=C[C@]2(C)[C@H]3CC=C4C5CC(C)(C)CC[C@]5(C(=O)OC)CC[C@@]4(C)[C@]3(C)CC[C@H]2C(C)(C)C1=O` (some centres undefined) had an IC50 in the experiment filed under Mus musculus [1] of 900 nM.

For the molecule `CC1(C)CC[C@]2(C(=O)O)CC[C@]3(C)C(=CC(=O)[C@@H]4[C@@]5(C)C=C(C#N)C(=O)C(C)(C)[C@@H]5CC[C@]43C)C2C1` (some centres undefined), inhibition in the experiment listed under Mus musculus [1] was half-maximal at 40 nM (IC50).

In the experiment listed under Mus musculus [1], `CC1(C)CC[C@]2(C(=O)O)CC[C@]3(C)C(=C2C1)CC(=O)[C@@H]1[C@@]2(C)C=C(C#N)C(=O)C(C)(C)[C@@H]2CC[C@]13C` displayed a half-inhibitory concentration (IC50) of 70 nM.
